Patent publication US20220395500A1, “SMALL MOLECULE ACTIVATORS OF INTERFERON REGULATORY FACTOR 3 AND METHODS OF USE THEREOF” (Neuralexo, Inc., priority 2020, published 2022)
pEC50: −log10 of the molar value. Where two headings read alike, the source gives them in different places.

Key:
[1] = THP1-Dual cytotoxicity (Cell Titer Glo, ATP); type: cell-based, human; details: human, THP1-Dual cells, read-out: Thp1 cytotox CC50
In short: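 Human THP1-Dual cells were treated across an 8-point dose-response range. Cytotoxicity was measured in-plate by CellTiter-Glo luminescence, which quantifies ATP as a marker of metabolically active cells, and CC50 was taken as the 50% cytotoxic concentration.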

[2] = tested on: NF-κB-SEAP reporter in THP1-Dual cells; assay: THP1-Dual NF-κB-SEAP reporter counterscreen; type: cell-based, human; details: Homo sapiens, THP1-Dual, read-out: THP1 NFkB EC50
Description: (§1) THP1 Dual (InvivoGen) cell suspensions were cultured in RPMI 1640 (Hyclone, Logan, Utah) supplemented with 10% fetal bovine serum (Hyclone), 100 U/mL Normocin (Invivogen), and 50 U/mL PenStrep (Gibco, Dublin, Ireland) between a density of 7·10^5-2·10^6 cells/mL. Every other passage, media was supplemented with 5 U/mL Blasticidin and 100 U/mL Zeocin to maintain the expression constructs. White, flat-bottom 384-well plates (Greiner, Kremsmunster, Austria, 781080) were seeded with 2.5·10^4 cells/well in a total of 50 μL media containing 5 ng/mL phorbolmyristic acid (PMA) using a Matrix WellMate (Thermo Scientific) dispenser. After 48 hours of incubation at 37° C., media was removed using a BioTek ELx405 CW plate washer set to aspirate and wash each well three times with 65 μL 1×PBS. Plates were reloaded with 50 μL media without PMA and treatments added. Lipopolysaccharide in dimethylsulfoxide (DMSO) was transferred to control wells using a HP D300 microdispenser to a final concentration of 313 ng/mL. Compounds from chemical library plates were copied using a Sciclone (Caliper LifeSciences) mounted with a 384-pin transfer tool to obtain a final concentration of 10 μM. After incubation with treatments for 24 hours, 10 μL of supernatant media from each well was transferred into a white, flat-bottom 384-well plate for luminescence readout and a black-walled, clear flat-bottom 384-well plate for absorbance readout.
(§2) Specifically, to enable screening of novel chemical entities (NCEs) in a larger screening effort, a robust high-throughput cell-based assay system for primary hit identification of ISRE activators based on the above-mentioned target validation was desired. Human ISRE activity was verified using a THP-1 monocyte line containing the NF-κB-SEAP and IRF-Lucia luciferase dual reporter (THP1-Dual; Invivogen) that features two reporter genes, SEAP (secreted embryonic alkaline phosphatase) and Lucia luciferase, thereby enabling the simultaneous study of the NF-κB and IRF signalling pathways. The Lucia luciferase reporter is under the control of an ISG54 (interferon-stimulated gene) minimal promoter in conjunction with five IFN-stimulated response elements. The SEAP gene is driven by an IFN-β minimal promoter fused to five copies of the NF-κB consensus transcriptional response element and three copies of the c-Rel binding site. Both reporter proteins are readily measurable in the cell culture supernatant when using QUANTI-LUC™ and QUANTI-Blue SEAP detection reagents.
Using the experimental design and data analysis outlined above, optimized assay conditions were obtained. The responsiveness of the human THP-1 Dual cell line was evaluated in an array of assay conditions to obtain sensitive and reproducible results for the activation of IRF and NF-κB reporters. An optimal plating density and differentiation protocol for these cells was established in a 384-well format. All transfer steps are fully automated using high throughput robotic equipment. Briefly, cells are seeded in differentiation medium using a Matrix WellMate fitted with the WellMate Stacker (Thermo Scientific) and incubated at 37° C. with 5% CO2 for 48 h. Following differentiation, cells are washed using a BioTek ELx405 Select CW plate washer and growth medium added with the Matrix WellMate. Programmed control treatments are added to wells using a D300 digital dispenser fitted with T8+ dispense heads (Hewlett Packard) designed to dispense nanoliter quantities of material. Compounds from library plates are added using a pin tool fitted to a Sciclone ALH 3000 Workstation (Caliper Life Sciences) programmed with Maestro v4.4. After treatment, plates are returned to incubators for 24 hours. To measure reporter expression, supernatant is collected using the Sciclone and dispensed into 2 plates: 1) a white 384-well assay plate for Lucia luminescence measurements and 2) a clear-bottom black 384-well assay plate for SEAP absorbance measurements. […]

J774-Dual cytotoxicity = type: cell-based, mouse; details: mouse, J774-Dual cells, read-out: J774 cytotox CC50
In short: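 Orthogonal cross-species screen in mouse J774-Dual cells using 8-point dose-response format. Cytotoxicity measured in-plate by CellTiter-Glo luminescence, giving CC50 alongside EC50 and ISRE:NFκB ratios.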

[3] = tested on: IRF-Lucia luciferase reporter (ISRE) in THP1-Dual cells; assay: THP1-Dual IRF-Lucia luciferase reporter assay (ISRE activation); type: cell-based, human; details: Homo sapiens, THP1-Dual, read-out: THP1 IRF EC50
Description: as §1, §2
The responsiveness of the human THP-1 Dual cell line was evaluated in an array of assay conditions to obtain sensitive and reproducible results for the activation of IRF and NF-κB reporters. […] All transfer steps are fully automated using high throughput robotic equipment. Briefly, cells are seeded in differentiation medium using a Matrix WellMate fitted with the WellMate Stacker (Thermo Scientific) and incubated at 37° C. with 5% CO2 for 48 h. Following differentiation, cells are washed using a BioTek ELx405 Select CW plate washer and growth medium added with the Matrix WellMate. Programmed control treatments are added to wells using a D300 digital dispenser fitted with T8+ dispense heads (Hewlett Packard) designed to dispense nanoliter quantities of material. Compounds from library plates are added using a pin tool fitted to a Sciclone ALH 3000 Workstation (Caliper Life Sciences) programmed with Maestro v4.4. After treatment, plates are returned to incubators for 24 hours. To measure reporter expression, supernatant is collected using the Sciclone and dispensed into 2 plates: 1) a white 384-well assay plate for Lucia luminescence measurements and 2) a clear-bottom black 384-well assay plate for SEAP absorbance measurements.

[4] = Human Reporter Cell Line, 8-point dose response

Cc1cc2nc(-c3ccc(C)c(NC(=O)c4ccc([N+](=O)[O-])cc4)c3)oc2cc1C [ND-71]
CC50 ([1]; Human Reporter Cell Line THP1): > 25 µM | pEC50 ([2]; Human Reporter Cell Line THP1): 5.16 | CC50 (J774-Dual cytotoxicity; Mouse Reporter Cell Line J774): > 25 µM | pEC50 ([3]; Human Reporter Cell Line THP1): 5.07

COc1c(Cl)cc(C(=O)Nc2cc(-c3nc4cc(Cl)ccc4o3)ccc2C)cc1Cl [ND-101]
CC50 ([1]; Human Reporter Cell Line THP1): > 25 µM | pEC50 ([2]; Human Reporter Cell Line THP1): ~5.43 | CC50 (J774-Dual cytotoxicity; Mouse Reporter Cell Line J774): > 25 µM

COC(=O)Cc1ccc(NC(=O)c2ccc(NC(=O)c3ccco3)cc2)cc1 [NC-3]
CC50 ([1]; Human Reporter Cell Line): > 25 µM | pEC50 [2, 4]: ~5.21 | CC50 (J774-Dual cytotoxicity; Mouse Reporter Cell Line): > 25 µM | pEC50 [3, 4]: 5.38

Cc1ccc(C(=O)Nc2cc(-c3nc4ccccc4s3)ccc2C)c(C)c1 [ND-104]
pEC50 ([2]; Human Reporter Cell Line THP1): 4.91

O=C(Nc1ccc(N2CCN(C(=O)c3cccs3)CC2)cc1)c1ccc(-c2ccccc2)cc1 [NA-19]
CC50 ([1]; Human Reporter Cell Line): 8.49 µM | pEC50 [2, 4]: 5.83 | CC50 (J774-Dual cytotoxicity; Mouse Reporter Cell Line): > 25 µM | pEC50 [3, 4]: 5.99

COc1ccc(C(=O)Nc2cc(-c3nc4cc(OCCCN5CCCC5)ccc4o3)ccc2C)cc1[N+](=O)[O-] [ND-92]
CC50 ([1]; Human Reporter Cell Line THP1): > 25 µM | pEC50 ([2]; Human Reporter Cell Line THP1): ~5.63 | CC50 (J774-Dual cytotoxicity; Mouse Reporter Cell Line J774): > 25 µM

CC(Oc1ccc(C(=O)Nc2ccc(N3CCN(C(=O)c4cccs4)CC3)cc2)cc1)c1ccccc1 (stereo not shown) [NA-22]
CC50 ([1]; Human Reporter Cell Line): > 25 µM | pEC50 [2, 4]: ~5.58 | CC50 (J774-Dual cytotoxicity; Mouse Reporter Cell Line): > 25 µM

COc1ccc(-c2nc3ccccc3s2)cc1NC(=O)c1ccc([N+](=O)[O-])cc1Cl [ND-67]
CC50 ([1]; Human Reporter Cell Line THP1): 8.87 µM | pEC50 ([2]; Human Reporter Cell Line THP1): ~4.91 | CC50 (J774-Dual cytotoxicity; Mouse Reporter Cell Line J774): > 25 µM | pEC50 ([3]; Human Reporter Cell Line THP1): 6.40

Cc1ccc(-c2nc3cc(Cl)ccc3o2)cc1NC(=O)c1cc([N+](=O)[O-])c(C)c([N+](=O)[O-])c1 [ND-61]
CC50 ([1]; Human Reporter Cell Line THP1): > 25 µM | pEC50 ([2]; Human Reporter Cell Line THP1): ~5.25 | CC50 (J774-Dual cytotoxicity; Mouse Reporter Cell Line J774): > 25 µM

COc1ccc2oc(-c3ccc(C)c(NC(=O)c4ccc(OC)c([N+](=O)[O-])c4)c3)nc2c1 [ND-86]
CC50 ([1]; Human Reporter Cell Line THP1): > 25 µM | pEC50 ([2]; Human Reporter Cell Line THP1): ~5.41 | CC50 (J774-Dual cytotoxicity; Mouse Reporter Cell Line J774): > 25 µM

O=C(Nc1ccc(N2CCN(C(=O)c3cccs3)CC2)cc1)c1ccc(OCc2ccc(OC(F)(F)F)cc2)cc1 [NA-34]
CC50 ([1]; Human Reporter Cell Line): > 25 µM | pEC50 [2, 4]: 5.20 | CC50 (J774-Dual cytotoxicity; Mouse Reporter Cell Line): > 25 µM | pEC50 [3, 4]: 5.35

COc1ccc(C(=O)Nc2cc(-c3nc4ccccc4s3)ccc2C)cc1Br [ND-68]
CC50 ([1]; Human Reporter Cell Line THP1): > 25 µM | pEC50 ([2]; Human Reporter Cell Line THP1): ~5.01 | CC50 (J774-Dual cytotoxicity; Mouse Reporter Cell Line J774): > 25 µM

Oc1ccc(-c2nc3ccc(O)cc3o2)cc1 [ND-74]
CC50 ([1]; Human Reporter Cell Line THP1): > 25 µM | pEC50 ([2]; Human Reporter Cell Line THP1): 4.49 | CC50 (J774-Dual cytotoxicity; Mouse Reporter Cell Line J774): > 25 µM

Cc1c(C(=O)Nc2ccc3oc(-c4cccnc4)nc3c2)cccc1[N+](=O)[O-] [ND-42]
CC50 ([1]; Human Reporter Cell Line THP1): > 25 µM | pEC50 ([2]; Human Reporter Cell Line THP1): ~4.81 | CC50 (J774-Dual cytotoxicity; Mouse Reporter Cell Line J774): > 25 µM | pEC50 ([3]; Human Reporter Cell Line THP1): ~8.65

Cc1ccc(-c2nc3ccccc3s2)cc1NC(=O)c1ccc(C(F)(F)F)c([N+](=O)[O-])c1 [ND-79]
CC50 ([1]; Human Reporter Cell Line THP1): > 25 µM | pEC50 ([2]; Human Reporter Cell Line THP1): ~4.95 | CC50 (J774-Dual cytotoxicity; Mouse Reporter Cell Line J774): > 25 µM

O=C(Nc1ccc(N2CCN(C(=O)c3cccs3)CC2)cc1)c1ccc2c(c1)OCCO2 [NA-28]
CC50 ([1]; Human Reporter Cell Line): > 25 µM | pEC50 [2, 4]: 5.52 | CC50 (J774-Dual cytotoxicity; Mouse Reporter Cell Line): > 25 µM

Cc1cc2nc(-c3ccc(C)c(NC(=O)c4ccc([N+](=O)[O-])cc4Cl)c3)oc2cc1C [ND-102]
pEC50 ([2]; Human Reporter Cell Line THP1): 4.24 | pEC50 ([3]; Human Reporter Cell Line THP1): 4.61

Cc1ccc(C(=O)Nc2ccc(O)c(-c3nc4ccccc4s3)c2)cc1[N+](=O)[O-] [ND-63]
CC50 ([1]; Human Reporter Cell Line THP1): 27.4 µM | pEC50 ([2]; Human Reporter Cell Line THP1): ~5.50 | CC50 (J774-Dual cytotoxicity; Mouse Reporter Cell Line J774): > 25 µM

Cc1cc2nc(-c3ccc(C)c(NC(=O)c4ccc(OCc5ccccc5)cc4)c3)oc2cc1C [ND-105]
CC50 ([1]; Human Reporter Cell Line THP1): > 10 µM | pEC50 ([2]; Human Reporter Cell Line THP1): 5.66 | CC50 (J774-Dual cytotoxicity; Mouse Reporter Cell Line J774): > 10 µM

Cc1ccc(-c2nc3ccccc3s2)cc1NC(=O)c1cc(I)ccc1Cl [ND-62]
CC50 ([1]; Human Reporter Cell Line THP1): > 25 µM | pEC50 ([2]; Human Reporter Cell Line THP1): ~5.03 | CC50 (J774-Dual cytotoxicity; Mouse Reporter Cell Line J774): > 25 µM

Cc1ccc(C(=O)Nc2cc(-c3nc4ccccc4s3)ccc2C)cc1Cl [ND-70]
CC50 ([1]; Human Reporter Cell Line THP1): 17.4 µM | pEC50 ([2]; Human Reporter Cell Line THP1): ~5.36 | CC50 (J774-Dual cytotoxicity; Mouse Reporter Cell Line J774): > 25 µM | pEC50 ([3]; Human Reporter Cell Line THP1): 5.32

COc1c(C)cc(Br)cc1C(=O)Nc1ccc(N2CCN(C(=O)c3cccs3)CC2)cc1 [NA-31]
CC50 ([1]; Human Reporter Cell Line): > 25 µM | pEC50 [2, 4]: ~5.49 | CC50 (J774-Dual cytotoxicity; Mouse Reporter Cell Line): > 25 µM

CCOc1cccc(COc2ccc(C(=O)Nc3ccc(N4CCN(C(=O)c5cccs5)CC4)cc3)cn2)c1 [NA-71]
CC50 ([1]; Human Reporter Cell Line): > 10 µM | pEC50 [2, 4]: 5.18 | CC50 (J774-Dual cytotoxicity; Mouse Reporter Cell Line): > 10 µM | pEC50 [3, 4]: 5.48

COc1ccc(C(=O)Nc2cc(-c3nc4ccccc4s3)ccc2Cl)cc1[N+](=O)[O-] [ND-89]
CC50 ([1]; Human Reporter Cell Line THP1): > 25 µM | pEC50 ([2]; Human Reporter Cell Line THP1): 4.98 | CC50 (J774-Dual cytotoxicity; Mouse Reporter Cell Line J774): > 25 µM | pEC50 ([3]; Human Reporter Cell Line THP1): ~6.30

COc1ccc(C(=O)Nc2ccc(O)c(-c3nc4ccccc4s3)c2)cc1[N+](=O)[O-] [ND-65]
CC50 ([1]; Human Reporter Cell Line THP1): > 25 µM | pEC50 ([2]; Human Reporter Cell Line THP1): 4.92 | CC50 (J774-Dual cytotoxicity; Mouse Reporter Cell Line J774): > 25 µM | pEC50 ([3]; Human Reporter Cell Line THP1): 5.27
